Key:
[1] = tested on: LNCaP cells; assay: cell counting with trypan blue; type: cell-based, human; settings: 1 μM and 5 μM, serum free RPMI 1640
Procedure: The effect of LY255283 was observed by counting of cell number. The cells were grown in 6-well cluster dishes to 70% confluence with 10% FBS-supplemented medium. At day 0, the medium was replaced with serum free RPMI 1640 and cells were stimulated with DMSO or 1 μM and 5 μM LY255283. The cells were harvested at various intervals. Cells were washed with PBS and collected by brief trypsinization. Total cell number was determined by counting each sample in duplicate with a hemocytometer using trypan blue dye. The cells treated with LY255283 in serum free RPM11640 were harvested at various intervals. […] In contrast, PWR-1 E cells which expressed few level of BLT2 were not affected by LY255283.

[2] = tested on: LNCaP cells; assay: Hoechst 33258 staining; type: cell-based, human; settings: 5 μM, 36 hr
Procedure: Prostate cancer cells grown in 6-well cluster dishes were stimulated with 5 μM LY255283 for 36 hr in serum free RPMI 1640. The cells were fixed for 10 min with 4% formaldehyde and stained with Hoechst 33258 (50 μg/ml) (Sigma) for 10 min at 37° C. and observed under fluorescence microscopy (Carl Zeiss).

[3] = tested on: LNCaP cells; assay: cell cycle analysis (PI, flow cytometry); type: cell-based, human; settings: 5 μM, 48 hr
Procedure: After LNCaP cells and PWR-1E cells were treated with 5 μM LY255283 for 48 hr, the cells were fixed with 70% ethanol and stained with Pl. Cell cycle was analyzed using flow cytometry. The cells grown in 6-well cluster dishes were stimulated with 5 μM LY255283 for 48 h in serum free RPMI 1640. The cells which were collected by brief trypsinization were fixed for 12 hr with 70% ethanol at 4° C. The cells were resuspended in PBS containing RNase A (100 μg/ml) and incubated for 30 min at 37° C. The cells were stained with propidium iodide (50 μg/ml) (Sigma). Acquisition and analysis was performed by FACS using Cell Quest Alias software (BD Bioscience).

[4] = tested on: 253J-BV cell (bladder cancer cell); assay: morphological changes by light microscopy; type: cell-based, human; settings: 1-10 μM, 48 hr
Procedure: Bladder cancer cells grown in 6 well-plate were treated with 10 μM LY255283, 1 uM U75302 for 48 hr. Cells were then viewed using light microscopy (×100). SV-HUC-1 cell (normal bladder cell) and 253J-BV cell (bladder cancer cell) were treated with different concentrations (1-10 μM) of LY255283 (BLT2 specific antagonist), U75302 (BLT1 specific antagonist) for 48 hr. […] But normal bladder cell line was not effect on morphological change treated with BLT antagonists.

[5] = tested on: MDA-MB-231 breast cancer cells; assay: Matrigel invasion assay; type: cell-based, human; settings: antibody 20 μg/ml, LY255283 10 μM, 48 h
Procedure: LF-BLT2 IgG Ab were also tested to determine if they had anti-BLT2-neutralizing effect in a cancer cell invasion assay. The migration of MDA-MB-231 breast cancer cells through Matrigel matrix gel in the presence of anti-LF-BLT2 was examined. The upper chamber of transwells (8.0-μm membrane pores; Costar) were coated with 2.5 μg/ml Matrigel matrix gel (BD Biosciences) and incubated at 37° C. for 2 hr. A total of 5×10^4 cells in 100 μl of medium with 0.5% FBS were added to the upper chamber and allowed to migrate toward the bottom chamber, which contained medium with 10% FBS as a chemoattractant. MDA-MB-231 cells were stopped at 48 hr. Cells on the top surface of the membranes were removed using a cotton swab, and cells on the underside were fixed in methanol and stained with hematoxylin and eosin (H&E).

[6] = tested on: Rat2-BLT2 cells; assay: experimental metastasis assay, lung metastasis driven by BLT2; type: in vivo, nude mice; settings: intraperitoneal 3 and 5 days after cell injection, 21 days
Procedure: All experimental animals used in this study were treated according to guidelines approved by the Institutional Animal Care and Use Committee of Korea University. Female nude mice (Charles River, Wilmington, Mass.), four-weeks-old at the time of injection, were used in the experimental metastasis assay. Rat-2, Rat2-HO6, and Rat2-BLT2 cells (5×10^5 cells) were prepared for injection from cultures in logarithmic growth at the time of harvest. The cells were briefly treated with 0.025% trypsin and 0.1% EDTA in Hanks' balanced salt solution and quickly removed from trypsin by centrifugation, resuspended in saline containing LTB4, and injected within 1 hr in 0.1 ml into the lateral tail vein with a 26-gauge needle. For inhibitor experiments, U75302 and LY255283 (0.25 mg/kg for BLT1 antagonist and 2.5 mg/kg for BLT2 antagonist) was injected intraperitoneal ˜3 and 5 days after injection of cells that were pretreated with inhibitors. […]
In vivo lung metastasis driven by H-Ras^V12 (panel B of FIG. 2a) or BLT2 (panel C of FIG. 2a) was reduced by BLT2 inhibition (LY255283) based on the macroscopic and histologic appearance of lung. […] Mice were euthanized 21 days after cell injection, and the number of lung metastasis nodules and weight of lung was analyzed in each group. […] Metastasis survival was analyzed in Kaplan-Meyer plots.

| SMILES | number of LNCaP cells [1] | nuclei condensation or fragmentation (Hoechst 33258) [2] | sub-G1 population [3] | morphological change [4] | invasion activity [5] | lung metastasis driven by BLT2 [6] |
| --- | --- | --- | --- | --- | --- | --- |
| CCc1cc(C(C)=O)c(O)cc1OCCCCCC(C)(C)c1nnn[nH]1 [LY255283, 1-[5-ethyl-2-hydroxy-4-[[6-methyl-6-(1H-tetrazol-5-yl)heptyl]oxy]phenyl]-ethanone] | significantly reduced | Nuclei condensation of fragmentation was observed | increased population of cells with sub-GI DNA content | exhibited membrane blebbing, detached from plate | showed inhibitory activity |  |
| CCCCC/C=C\C[C@@H](O)/C=C/c1cccc(C[C@@H](O)CCCCO)n1 [U75302] |  |  |  |  |  | caused no suppression on metastasis |

Source: patent US8518889B2, “Method of treating cancer with antibodies against long-form leukotriene B4 receptor BLT2” (Korea University Research & Business Foundation, priority 2007, dated 2013)
